# Read-outs that look alike come from different tables or passages of the source.
# B1: evolocumab: human monoclonal antibody that inhibits PCSK9 (antibody, chains of the INN, looked up, V domains shown)
# VH: EVQLVQSGAEVKKPGASVKVSCKASGYTLTSYGISWVRQAPGQGLEWMGWVSFYNGNTNYAQKLQGRGTMTTDPSTSTAYMELRSLRSDDTAVYYCARGYGMDVWGQGTTVTVSS
# VL: ESALTQPASVSGSPGQSITISCTGTSSDVGGYNSVSWYQQHPGKAPKLMIYEVSNRPSGVSNRFSGSKSGNTASLTISGLQAEDEADYYCNSYTSTSMVFGGGTKLTVL
# B2: IFN-Y^− 1b: recombinant interferon gamma 1b, given nebulized (protein, UniProt P01579 24-161, looked up)
# Interferon gamma: QDPYVKEAENLKKYFNAGHSDVADNGTLFLGILKNWKEESDRKIMQSQIVSFYFKLFKNFKDDQSIQKSVETIKEDMNVKFFNSNKKKRDDFEKLTNYSVTDLNVQRKAIHELIQVMAELSPAAKTGKRKRSQMLFRG
# Assays:
# [1] = in vivo; cited from earlier work
# TB bacteria [2] = conditions: cited from earlier work
# monkey and human cells = conditions: cited from earlier work
# TB proteasome = TB proteasome (Mycobacterium tuberculosis, UniProt P9WHT9); conditions: Lin et al 2009; cited from earlier work
# TB proteasome, sequence (P9WHT9 58-291): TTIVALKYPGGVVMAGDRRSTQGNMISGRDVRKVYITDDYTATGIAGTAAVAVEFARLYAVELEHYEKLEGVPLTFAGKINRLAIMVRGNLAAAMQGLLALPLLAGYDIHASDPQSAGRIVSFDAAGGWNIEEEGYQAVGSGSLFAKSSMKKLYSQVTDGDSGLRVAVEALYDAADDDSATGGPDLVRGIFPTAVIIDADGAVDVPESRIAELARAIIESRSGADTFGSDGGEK
# TB proteasome, sequence (P9WHU1 whole entry partner): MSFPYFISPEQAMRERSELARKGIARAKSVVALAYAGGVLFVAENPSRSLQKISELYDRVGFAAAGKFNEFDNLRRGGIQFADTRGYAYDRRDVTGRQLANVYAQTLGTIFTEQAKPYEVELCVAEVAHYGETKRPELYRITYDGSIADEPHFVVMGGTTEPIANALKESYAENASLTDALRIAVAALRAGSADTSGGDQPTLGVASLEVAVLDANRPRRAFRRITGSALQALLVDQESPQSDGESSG
# [3] = test system: radiation resistant breast cancer cells; conditions: cells pre-loaded with iron after incubation with holotransferrin, cited from earlier work
# malaria = conditions: 3 grams (about 50 mg/kg) over a 3 to 5 day period; cited from earlier work
# [4] = cited from earlier work
# [5] = cited from earlier work; remark: listed apart in the source
# [6] = intravenous, doses from 5 to 50 grams or higher per day
# creatine kinase = conditions: compared with the placebo group; cited from earlier work
# endothelial dysfunction = conditions: 2,000 mg/day for two weeks; cited from earlier work
# [7] = test system: mycobacterium tuberculosis; assay: Breast cancer patient with pulmonary TB given high dose Vitamin C; type: in vivo, human
# Source text: In the presence of above reductants, ferrous ions are produced by reduction of ferric ions (#2). One reductant known to drive the Fenton reaction is Vitamin C, also known as ascorbic acid. As a pro-oxidant, vitamin C can drive the Fenton reaction by reducing ferric ions to ferrous ions as shown in the above formula and FIG. 3. Most iron within the cell is bound within porphyrins and proteins, as ferric ions that are sparingly soluble and ferrous ions are very reactive as well as more soluble. To examine the role of iron concentration in vitamin C bactericidal activity, the concentrations of bound iron and reduced and oxidized free iron were measured in tuberculosis cultures treated with vitamin C. […] This increase in free iron levels was also the dose which peaked at day three. […] We treated a person has traveled to Southeast Asia and was diagnosed with left breast cancer. It was an early case with discrete lymph node metastasis. They have cough with blood tinged sputum, night sweats, and weight loss. […] By the time we made the TB diagnosis they were treated with high dose Vitamin C 10 to 25 grams in 500 ml normal saline every day for a total of 10 doses as an adjuvant therapy for cancer. They underwent local injection of anti-breast cancer chemotherapy therapeutic agents with insulin and local heat application with magnetic heat waves and hyperbaric therapy using soft air HBO chamber.
# This person has traveled to Southeast Asia and was diagnosed with left breast cancer. It was an early case with discrete lymph node metastasis. They have cough with blood tinged sputum, night sweats, and weight loss. […] By the time we made the TB diagnosis they were treated with high dose Vitamin C 10 to 25 grams in 500 ml normal saline every day for a total of 10 doses as an adjuvant therapy for cancer. They underwent local injection of anti-breast cancer chemotherapy therapeutic agents with insulin and local heat application with magnetic heat waves and hyperbaric therapy using soft air HBO chamber.
# After the lab came with mycobacterium tuberculosis, we wanted to see why the cough has gone with no sputum. […] We sent the sputum again, and came negative for mycobacterium tuberculosis after culture. This also made us to diagnose that the lesion in the lungs was not a metastatic breast cancer. The patient was treated with chemotherapy, local injection of breast mass and lymph nodes with high dose Vitamin C chemotherapy therapeutic agents. After completion of therapy, they were sent to surgery for the removal of the remaining lesion mass in the breast which had shrunk considerably, and axillary lymph node resection. They were seen 3 months after surgery. Their chest X ray was negative and so also sputum M. tuberculosis bacteria. They were free of cancer and tuberculosis.
# [8] = test system: Methicillin resistant staphylococcus aureus; assay: Treatment of MRSA infected patients; conditions: with broad spectrum antibiotics, insulin induced hypoglycemia and hyperbaric therapy
# M. tuberculosis [9] = conditions: flow cytometry; cited from earlier work
# tuberculosis bacteria = conditions: treated for 3 days, versus untreated sample; cited from earlier work
# [10] = cited from earlier work; remark: listed apart in the source
# [11] = test system: plasma C reactive protein (CRP); conditions: smokers; cited from earlier work
# M. tuberculosis [12] = conditions: after 9 days; cited from earlier work
# tuberculosis cultures = conditions: compared to the untreated cultures after three days; cited from earlier work
# [13] = low sustained systemic release; cited from earlier work
# pathogenic organism's = conditions: cited from earlier work
# [14] = at atmospheric pressure; cited from earlier work
# tuberculosis infection = conditions: cited from earlier work; for effect on tuberculosis infection: alone at 20 mg/kg per day; for TB lesion in the spleen compared with pyrazinamide alone / bacteria in the lungs compared with pyrazinamide alone: simultaneous administration with pyrazinamide
# TB bacteria [15] = conditions: cited from earlier work; remark: listed apart in the source
# [16] = test system: Mycobacterium tuberculosis outside cells; conditions: cited from earlier work
# [17] = test system: Mycobacterium tuberculosis bacteria in the monocytes; conditions: cited from earlier work
# [18] = target: proprotein convertase subtilisin-kexin type 9 (PCSK9) (Homo sapiens, UniProt Q8NBP7); conditions: parenteral administration; cited from earlier work
# M. tuberculosis [19] = conditions: cited from earlier work
# [20] = 150 mg/kg per day, one month of treatment
molecule,measurement,setting,value
CC(=O)Nc1ccc(/C=N/NC(N)=S)cc1 [Thiacetazone],ADVERSE EVENT/CONTRAINDICATION,[1],Severe skin rash among HIV +ve (not recommended)
oxathiazol-2-one,effect on TB bacteria,TB bacteria [2],killed the TB bacteria
same,harm to mammalian cells,monkey and human cells,did not appear to harm mammalian cells
same,inhibition of the TB proteasome relative to the human proteasome,TB proteasome,"about 1,000 times"
C[C@@H]1CC[C@H]2[C@@H](C)C(=O)O[C@@H]3O[C@@]4(C)CC[C@@H]1[C@]32OO4 [artemisinin],cancer cell killing,[3]; 8 hours,75%
same,cancer cell killing,[3]; within 24 hours,~100%
same,resistance and toxicity,malaria,no resistance nor did toxicity
"CO[C@H]1/C=C/O[C@@]2(C)Oc3c(C)c(O)c4c(O)c(c(/C=N/N5CCN(C)CC5)c(O)c4c3C2=O)NC(=O)/C(C)=C\C=C\[C@H](C)[C@H](O)[C@@H](C)[C@@H](O)[C@@H](C)[C@H](OC(C)=O)[C@@H]1C [Rifampin, Rifampicin]",ADVERSE EVENT/CONTRAINDICATION,[1],"Hepatitis, GI reactions"
same,Plasma Concentrations (mean±standard deviation),"[4]; IV 300 mg, 30 min",8.9 ± 2.9 µg/mL
same,Plasma Concentrations (mean±standard deviation),"[4]; IV 300 mg, 1 hr to 2 hr",4.9 ± 1.3 µg/mL
same,Plasma Concentrations (mean±standard deviation),"[4]; IV 300 mg, 4 hr",2.5 ± 1.0 µg/mL
same,Plasma Concentrations (mean±standard deviation),"[4]; IV 300 mg, 8 hr",1 ± 0.6 µg/mL
same,Plasma Concentrations (mean±standard deviation),"[4]; IV 300 mg, 12 hr",<0.4 µg/mL
same,Plasma Concentrations (mean±standard deviation),"[4]; IV 600 mg, 30 min",17.4 ± 5.1 µg/mL
same,Plasma Concentrations (mean±standard deviation),"[4]; IV 600 mg, 1 hr to 2 hr",11.7 ± 2.8 µg/mL
same,Plasma Concentrations (mean±standard deviation),"[4]; IV 600 mg, 4 hr",6.4 ± 1.7 µg/mL
same,Plasma Concentrations (mean±standard deviation),"[4]; IV 600 mg, 8 hr",3.5 ± 1.4 µg/mL
same,Plasma Concentrations (mean±standard deviation),"[4]; IV 600 mg, 12 hr",1.2 µg/mL
same,concentration of the drug in the blood plasma,[5]; after increasing the dose,higher than expected
same,adverse effects,[5]; increased dose versus standard dose,did not experience adverse effects
"O=C1O[C@H]([C@@H](O)CO)C(O)=C1O [Vitamin C, L-ascorbic acid]",safety and tolerability,[6],safe and well-tolerated
same,"release of creatine kinase, an indicator of muscle damage",creatine kinase,inhibits the release of creatine kinase
same,endothelial dysfunction,endothelial dysfunction,reversed endothelial dysfunction
same,outcome of tuberculosis,"[7]; 10 to 25 grams IV every day, total of 10 doses",completely cured of tuberculosis
same,cough,[7]; by second week,completely disappeared
same,sputum for mycobacterium tuberculosis after culture,[7]; repeat sputum after treatment,negative
same,chest X ray,[7]; third week,disappearance of the lesion
same,outcome of MRSA infection,[8],complete elimination of the infection
same,increase in total ROS,M. tuberculosis [9],Up to threefold
same,intracellular levels of ferrous ions,tuberculosis bacteria,up to ten times higher
same,peak plasma concentration,"[10]; IV infusion up to 50 grams, cancer patients",13.4 mM
same,peak plasma concentrations,[10]; maximum tolerated dose of 3 g every 4 hours taken orally,0.22 mM
same,reduction in plasma C reactive protein (CRP) concentrations,[11],24%
same,DNA damage relative to the untreated culture or culture treated with Vitamin E,M. tuberculosis [12],tenfold higher
same,ROS induced DNA damage,M. tuberculosis [12],17-25%
same,extracellular free iron concentrations,tuberculosis cultures,nearly four-fold higher
"CCc1cc(C(N)=S)ccn1 [Ethionamide, 2-ethylthioiso-nicotinamide]",adverse effects stated in the text,[1],neurotoxicity and fatal hepatotoxicity
"O=[N+]([O-])c1ccc(O)c([N+](=O)[O-])c1 [DNP, 2,4, dinitrophenol]",increase of the therapeutic window,[13],more than 500 fold
O=[O+][O-] [ozone],molecules of chlorine equal to one molecule of ozone,pathogenic organism's,"3000-10,000 molecules"
same,speed of killing pathogenic organisms,pathogenic organism's; compared with chlorine,3500 times faster
same,time to break down from O3 to O2+O1,[14],≤ 20 min
CC[C@@H](CO)NCCN[C@@H](CC)CO [Ethambutol],adverse effects stated in the text,[1],risk of developing optic neuritis
N[C@@H](CS)C(=O)O [cysteine],intracellular levels of ferrous ions,tuberculosis bacteria,up to ten times higher
"NC(=O)c1cnccn1 [pyrazinamide, Pyrazinamide]",ADVERSE EVENT/CONTRAINDICATION,[1],Hepatitis
same,reduction in the lung compared with the control,tuberculosis infection; [20],about 1.5 log10 cfu
same,reduction in the spleen compared with the control,tuberculosis infection; [20],~2 log10 cfu
CC(C)Cc1ccc(C(C)C(=O)O)cc1 (stereo not drawn) [ibuprofen],number of TB bacteria detected in the organs,"TB bacteria [15]; mouse, in vivo",reduced the number of TB bacteria detected in the organs
same,survival,TB bacteria [15]; versus mice not treated with ibuprofen,lived longer
same,effect on tuberculosis infection,tuberculosis infection,little effect
same,TB lesion in the spleen compared with pyrazinamide alone,tuberculosis infection,further decrease
same,bacteria in the lungs compared with pyrazinamide alone,tuberculosis infection,lower unit counts
"CC(=O)Oc1ccccc1C(=O)O [aspirin, Acetylsalicylic acid]",effect on tuberculosis infection,tuberculosis infection,little effect
same,TB lesion in the spleen compared with pyrazinamide alone,tuberculosis infection,further decrease
same,bacteria in the lungs compared with pyrazinamide alone,tuberculosis infection,statistically significant fewer bacteria
"O=C1[C@H](CC[C@H](O)c2ccc(F)cc2)[C@@H](c2ccc(O)cc2)N1c1ccc(F)cc1 [Ezetimibe, (3R,4S)-1-(4-fluorophenyl)-3-[(3S)-3-(4-fluorophenyl)-3-hydroxypropyl]-4-(4-hydroxyphenyl) zetidin-2-one]",killing of Mycobacterium tuberculosis outside cells,[16],directly killing
same,survival and proliferation of Mycobacterium tuberculosis in the monocytes,[17],significantly inhibiting the survival and proliferation
B1,reduction in LDL cholesterol levels,[18],60%
B2,IFN gamma signaling,"M. tuberculosis [19]; 10 TB patients, one month of nebulized therapy",enhanced IFN-Y^− signaling
same,clearance of M. tuberculosis bacteria from the sputum,"M. tuberculosis [19]; nebulized, added to DOTS, randomized controlled trial",more rapid clearance
same,sputum,"M. tuberculosis [19]; open-label, nebulized, 5 patients with MDR-TB, after 1 month",clearing of the sputum
